# Data published in US20240148835A1, “TREATING DISORDERS ASSOCIATED WITH DYRK1A DYSFUNCTION” (UNIVERSITY OF FLORIDA RESEARCH FOUNDATION, INCORPORATED, priority 2021, published 2024).
# “Also recorded” adds a separate entry of the source.
# Experiments:
# Dyrk1a cHets [1] = assay: Chronic (1-3)IGF-1 treatment from P14: cortical and neuronal morphology; type: in vivo, mouse
# Protocol: To test whether administration of the active peptide (1-3)IGF-1 restores cortical growth in cHets, we utilized the following paradigm: controls and cHets were treated daily with either (1-3)IGF-1 or vehicle beginning at P14. A behavioral battery began at P56 and daily injections continued until the mice were sacrificed for downstream analysis (FIG. 17A). […] As the impact of loss-of-function Dyrk1a mutations on spine density has not been investigated in vivo, we measured spine density on primary neurites of layer V pyramidal neurons in the mPFC. […] Together, these findings indicate that chronic (1-3)IGF-1 treatment beginning at P14 rescues microcephaly and neuronal undergrowth in Dyrk1a cHets.
# (1-3)IGF-1 was acquired from VWR/Bachem (catalog #H-2468.1000) and dissolved in saline with 0.01% BSA fresh every day. Intraperitoneal injections of 10 mg kg′ (1-3)IGF-1 or vehicle were delivered daily at 8 a.m. starting on P14 and ending on P85. […] The S6K1 inhibitor PF-4708671 was acquired from Medkoo Biosciences (#406432) dissolved in 10% DMSO, 10% tween 80 and 80% water. (1-3)IGF-1 (10 mg kg′) and PF-4708671 (50 mg kg^−1) or vehicle were injected subcutaneously into pups from P0 to P7. Rapamycin was acquired from LC laboratories (R-5000) and dissolved in 4% ethanol, 5% tween-80, and 5% PEG400 in PBS. (1-3)IGF-1 (10 mg kg′) and Rapamycin (1 mg kg′) or vehicle were injected subcutaneously into pups from P0 to P7. SB216763 was acquired from TOCRIS (#1616) and dissolved in 5% DMSO and 0.9% saline in dH20. SB216763 (0.5 mg kg′) was injected subcutaneously into pups from P0 to P7.
# Adult animals were perfused with 4% PFA and pups underwent rapid decapitation and dissection. After 18 hours post-fixation in 4% PFA, brains were incubated in a 20% sucrose/PBS solution at 4° C. for 2-3 days and embedded in Tissue-Tek OCT compound (Sakura). 40 μm sections were collected on Superfrost/Plus slides and stained. DAPI was used for nuclear labeling (Invitrogen, catalog #D3571). Slides were mounted with Vectashield HardSet and images were obtained with an Olympus VS120 microscope and processed using the VS-DESKTOP software (Olympus) or ImageJ (NIH). Ventricle size was analyzed by drawing an ROI around the entire ventricle in 2-3 plane-matched sections per animal.
# Following rapid decapitation, brains were removed and processed using the FD Rapid Golgistain™ kit (FD Neurotechnologies, Columbia MD) following the manufacturer's instructions. A Leica vibrating microtome was used to cut 100 μm coronal sections in 6% sucrose in PBS. The sections were then mounted on gelatin-coated slides and stained using the FD Rapid Golgistain™ kit. Individual neurons were imaged using a Leica DM5500B 20× objective and reconstructed using Neuromantic software. After reconstruction, Sholl analysis was performed in ImageJ using the Simple Neurite Tracer. Primary neurites were selected for spine density analysis where the number of spines was counted and divided by the length of the neurite fragment. Soma size was measured using the ROI freehand tool on imageJ (NIH).
# Dyrk1a cHets [2] = assay: Neonatal (1-3)IGF-1 injection in Dyrk1a cHet pups: cortex mass, layer V soma size, p-S6; type: in vivo, mouse
# Protocol: We next aimed to increase mTOR signaling via pharmacological intervention. Because activation of TrkB receptor is decreased in cKOs, treating mice with exogenous BDNF may not be effective. To circumvent this issue while stimulating the same signaling cascades, we injected neonatal pups with (1-3)IGF-1 (GPE), a tripeptide cleaved from the N-terminus of IGF-1 (44). Pups were injected daily from P0 to P7 with 10 μg/g (1-3)IGF-1 or vehicle based on a previously described treatment paradigm (45). Eight hours post-injection on P7, pups were sacrificed, and brains were fixed (FIG. 7F).
# (1-3)IGF-1 treatment: (1-3)IGF-1 was acquired from VWR/Bachem (catalog #H-2468.1000) and dissolved in saline with 0.01% BSA fresh every day. Intraperitoneal injections of 10 μg/g (1-3)IGF-1 or vehicle were delivered daily at 8 a.m. starting on P1 and ending on P7. […] Pups were individually removed, injected, and placed back in the home cage with the dam. On P7, 6 hours post-injection, pups were rapidly decapitated for downstream analysis.
# Immunohistochemistry: Adult animals were perfused with 4% PFA, and pups underwent rapid decapitation and dissection. After 18 hours post-fixation in 4% PFA, brains were incubated in a 20% sucrose/PBS solution at 4° C. for 2-3 days and embedded in Tissue-Tek OCT compound (Sakura). 40 μm sections were collected on Superfrost/Plus slides and stained. The following primary antibodies were used following antigen retrieval (10 min. in boiling 10× citrate buffer): anti-cleaved caspase 3 (1:1000, Cell Signaling Technology, catalog #9661S), anti-Ctip2 (1:2000, Abcam, catalog #18465), anti-p-S6 Ser235/236 (1:2000, Cell Signaling Technology, catalog #4858S). AlexaFluor-488, -594, and -647-conjugated secondary antibodies (1:2000) were purchased from Invitrogen. DAPI was used for nuclear labeling (Invitrogen, catalog #D3571). Slides were mounted with Vectashield HardSet and images were obtained with an Olympus VS120 microscope and processed using the VS-DESKTOP software (Olympus) or ImageJ (NIH).
# For p-S6 intensity, P0, P7, and adult sections were stained with Ctip2 and p-S6 (Ser235/236). […] After image acquisition, Ctip2+ neurons were measured for p-S6 mean gray intensity. 25-30 neurons were measured per section and 2 plane-matched sections were analyzed per animal.
# For soma size analysis, sections were stained with NeuroTrace green fluorescent Nissl stain (1:100 dilution, Life Technologies catalog #N-21480) and washed with PBS. After image acquisition, somas in each layer in somatosensory cortex (51) were measured using the ImageJ freehand tool. Layers were denoted based on anatomical boundaries using DAPI staining. 30-35 somas were measured per layer and 2-3 plane-matched sections were analyzed per animal. This was done based on a previously published technique (8).
substance,measurement,setting,value
"(1-3)IGF-1: a tripeptide cleaved from the N-terminus of IGF-1; acquired from VWR/Bachem, CAS No. 32302-76-4 (GPE; Insulin-like growth factor 1; UniProt P05019 49-51, looked up, fragment)",neuronal complexity of layer V pyramidal neurons in the mPFC (Sholl analysis),"Dyrk1a cHets [1]; daily from P14, adult cHets",restored the neuronal complexity; also recorded: rescued
same,soma size of layer V pyramidal neurons,"Dyrk1a cHets [1]; daily from P14, adult cHets",restored the significantly smaller neuronal soma size; also recorded: rescued
same,ventricle area in cHets,"Dyrk1a cHets [1]; daily from P14, adult cHets",normalized; also recorded: rescued
same,spine density of layer V pyramidal neurons in the mPFC,"Dyrk1a cHets [1]; daily from P14, adult cHets, primary neurites",significantly increased; also recorded: partially restored
same,cortex mass (cortical growth) of cHets,"Dyrk1a cHets [1]; daily i.p. 10 mg kg from P14, adult cHets",rescued cortical growth in cHets; also recorded: restored
same,cortex mass (cortical growth) of controls,"Dyrk1a cHets [1]; daily i.p. 10 mg kg from P14, controls",no effect on controls
same,cortex mass of controls,"Dyrk1a cHets [2]; control pups, 10 μg/g daily to P7",no effect
same,p-S6 per layer V neuron in cHets,"Dyrk1a cHets [2]; neonatal cHets, 10 μg/g daily to P7, Ctip2+ neurons",normal levels; also recorded: rescues the decreased p-S6
same,soma size of layer V neurons in cHets,"Dyrk1a cHets [2]; neonatal cHets, 10 μg/g daily to P7, Nissl stain",comparable to controls; also recorded: rescues the decreased soma size
same,cortex mass of cHets,"Dyrk1a cHets [2]; neonatal cHets, 10 μg/g daily to P7, analysed P7, vs vehicle",rescues the decreased cortex mass
